Laboratory results from patent US20140031278A1, “Novel Glucagon Analogues” (NOVO NORDISK A/S, priority 2011, published 2014).

Each compound was assayed against T1, glucagon receptor (Homo sapiens, UniProt P47871) (assay: Assay (I) Glucagon activity (cAMP biosensor, FLIPR)). Settings: HEK-293 cells with cloned glucagon receptor and cAMP biosensor; end point after 6 minutes.
T1 construct: expressed in transfected cells
T1 sequence (P47871 26-477): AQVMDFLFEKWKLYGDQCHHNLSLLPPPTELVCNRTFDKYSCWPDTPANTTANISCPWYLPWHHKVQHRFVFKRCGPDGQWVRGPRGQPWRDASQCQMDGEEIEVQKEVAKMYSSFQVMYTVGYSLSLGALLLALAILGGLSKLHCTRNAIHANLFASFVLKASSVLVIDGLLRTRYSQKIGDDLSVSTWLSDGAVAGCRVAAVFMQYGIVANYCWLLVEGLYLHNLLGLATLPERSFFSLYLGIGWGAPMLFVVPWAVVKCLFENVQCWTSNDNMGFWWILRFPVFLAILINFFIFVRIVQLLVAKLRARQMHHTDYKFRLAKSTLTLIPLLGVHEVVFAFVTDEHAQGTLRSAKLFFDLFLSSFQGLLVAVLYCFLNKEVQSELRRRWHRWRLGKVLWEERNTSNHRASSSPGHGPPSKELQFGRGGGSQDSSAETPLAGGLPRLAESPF
Type: cell-based
Outline: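 HEK-293 cells expressing glucagon receptor with membrane cAMP biosensor (ACTOne), calcium-dye loaded with probenecid and a PDE inhibitor.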
Compound CC(=O)N[C@@H](CCC(=O)N[C@@H](CCC(=O)N[C@@H](CCC(=O)N[C@@H](CCC(=O)NCCCC[C@H](NC(=O)[C@H](CO)NC(=O)[C@H](CC(C)C)NC(=O)[C@H](CC(C)C)NC(=O)[C@H](Cc1c[nH]c2ccccc12)NC(=O)[C@H](CCC(N)=O)NC(=O)[C@@H](NC(=O)[C@H](Cc1ccccc1)NC(=O)[C@H](CC(=O)O)NC(=O)[C@H](CCC(N)=O)NC(=O)[C@H](C)NC(=O)[C@H](CCCNC(=N)N)NC(=O)[C@H](CCCNC(=N)N)NC(=O)[C@H](CO)NC(=O)[C@H](CC(=O)O)NC(=O)[C@H](CC(C)C)NC(=O)[C@H](Cc1ccc(O)cc1)NC(=O)[C@H](CCCCN)NC(=O)[C@H](CO)NC(=O)[C@H](Cc1ccc(O)cc1)NC(=O)[C@H](CC(=O)O)NC(=O)[C@H](CO)NC(=O)[C@@H](NC(=O)[C@H](Cc1ccccc1)NC(=O)[C@@H](NC(=O)CNC(=O)[C@H](CCC(N)=O)NC(=O)[C@H](CO)NC(=O)[C@@H](N)Cc1c[nH]cn1)[C@@H](C)O)[C@@H](C)O)C(C)C)C(=O)O)C(=O)O)C(=O)O)C(=O)O)C(=O)O [Example 52, N^ε^29-[(4S)-4-[[(4S)-4-[[(4S)-4-[[(4S)-4-acetamido-4-carboxybutanoyl]amino]-4-carboxybutanoyl]amino]-4-carboxybutanoyl]amino]-4-carboxybutanoyl]-[Leu^27,Ser^28,Lys^29]-Glucagon] has an EC50 of 0.01 nM.
Compound CC(=O)N[C@@H](CCC(=O)N[C@@H](CCC(=O)N[C@@H](CCC(=O)N[C@@H](CCC(=O)NCCCC[C@H](NC(=O)[C@@H](NC(=O)[C@H](Cc1ccccc1)NC(=O)[C@H](CC(=O)O)NC(=O)[C@H](CCC(N)=O)NC(=O)[C@H](C)NC(=O)[C@H](CCCNC(=N)N)NC(=O)[C@H](CCCNC(=N)N)NC(=O)[C@H](CO)NC(=O)[C@H](CCC(=O)O)NC(=O)[C@H](CC(C)C)NC(=O)[C@H](Cc1ccc(O)cc1)NC(=O)[C@H](CCCCN)NC(=O)[C@H](CO)NC(=O)[C@H](Cc1ccc(O)cc1)NC(=O)[C@H](CC(=O)O)NC(=O)[C@H](CO)NC(=O)[C@@H](NC(=O)[C@H](Cc1ccccc1)NC(=O)[C@@H](NC(=O)CNC(=O)[C@H](CCC(N)=O)NC(=O)[C@H](CO)NC(=O)[C@@H](N)Cc1c[nH]cn1)[C@@H](C)O)[C@@H](C)O)C(C)C)C(=O)N[C@@H](Cc1c[nH]c2ccccc12)C(=O)N[C@@H](CC(C)C)C(=O)N[C@@H](CC(C)C)C(=O)N[C@@H](CO)C(=O)N[C@H](C(=O)O)[C@@H](C)O)C(=O)O)C(=O)O)C(=O)O)C(=O)O [Example 23, N^ε24-[(4S)-4-[[(4S)-4-[[(4S)-4-[[(4S)-4-acetamido-4-carboxybutanoyl]amino]-4-carboxybutanoyl]amino]-4-carboxybutanoyl]amino]-4-carboxybutanoyl]-[Glu15,Lys24,Leu27,Ser28]-Glucagon] has an EC50 of 0.0105 nM.
CC(=O)N[C@@H](CCC(=O)N[C@@H](CCC(=O)N[C@@H](CCC(=O)N[C@@H](CCC(=O)NCCCC[C@H](NC(=O)[C@@H](NC(=O)[C@H](Cc1ccccc1)NC(=O)[C@H](CC(=O)O)NC(=O)[C@H](CCC(N)=O)NC(=O)[C@H](C)NC(=O)[C@H](CCCNC(=N)N)NC(=O)[C@H](CCCNC(=N)N)NC(=O)[C@H](Cc1ccccc1)NC(=O)[C@H](CC(=O)O)NC(=O)[C@H](CC(C)C)NC(=O)[C@H](Cc1ccc(O)cc1)NC(=O)[C@H](CCCCN)NC(=O)[C@H](CO)NC(=O)[C@H](Cc1ccc(O)cc1)NC(=O)[C@H](CC(=O)O)NC(=O)[C@H](CO)NC(=O)[C@@H](NC(=O)[C@H](Cc1ccccc1)NC(=O)[C@@H](NC(=O)CNC(=O)[C@H](CCC(N)=O)NC(=O)[C@H](CO)NC(=O)[C@@H](N)Cc1c[nH]cn1)[C@@H](C)O)[C@@H](C)O)C(C)C)C(=O)N[C@@H](Cc1c[nH]c2ccccc12)C(=O)N[C@@H](CC(C)C)C(=O)N[C@@H](CC(C)C)C(=O)N[C@@H](CO)C(=O)N[C@H](C(=O)O)[C@@H](C)O)C(=O)O)C(=O)O)C(=O)O)C(=O)O [Example 35] was tested, and the EC50 was 0.0028 nM.
